We go through one compound from US8137907B2, “Orthotopic and genetically tractable non-human animal model for liver cancer and the uses thereof” (Cold Spring Harbor Laboratory, priority 2005, dated 2012).

This experiment concerns subcutaneous liver tumor of genetic constellation p53−/−+Akt-over expression. As to the kind of experiment: Subcutaneous liver cancer model, evaluation of tumor therapy (FIG. 7). It counts as in vivo, mouse. The text has this:
FIG. 7: An example of subcutaneous liver cancer model of this invention on the genetic constellation p53−/−+Akt-over expression and its uses in evaluating tumor therapy. Akt is an […] that is activated in many cancers and may promote drug resistance in vitro (Mayo et al., “PTEN protects p53 from Mdm2 and sensitizes cancer cells to chemotherapy,” J. Biol. Chem. 277: 5484-5489 (2002)).
Most preferably, the therapies are used and evaluated in combination. […] The tumor embodied in FIG. 2 can also be treated with Rapamycin, a targeted therapy that inhibits the mammalian target of rapamycin (mTOR). […] In combination, however, as depicted in FIG. 7, the two therapies control tumor growth.

Each structure is given as a SMILES string.

As to `Nc1ccn([C@@H]2O[C@H](CO)[C@@H](O)C2(F)F)c(=O)n1` [Gemcitabine], the tumor growth result is “virtually no effect on tumor growth”.
